Assay results reported in PMC5429769, “Rational development of Stafib-2: a selective, nanomolar inhibitor of the transcription factor STAT5b” (Scientific Reports, 2017).

Assays:
[1] = target: T1, STAT5b Phe633Ala (Homo sapiens, UniProt P51692, F633A); assay: Isothermal titration calorimetry, STAT5b Phe633Ala; type: binding; details: ITC, 25 °C, n = 2
T1 sequence (P51692 1-787 F633A): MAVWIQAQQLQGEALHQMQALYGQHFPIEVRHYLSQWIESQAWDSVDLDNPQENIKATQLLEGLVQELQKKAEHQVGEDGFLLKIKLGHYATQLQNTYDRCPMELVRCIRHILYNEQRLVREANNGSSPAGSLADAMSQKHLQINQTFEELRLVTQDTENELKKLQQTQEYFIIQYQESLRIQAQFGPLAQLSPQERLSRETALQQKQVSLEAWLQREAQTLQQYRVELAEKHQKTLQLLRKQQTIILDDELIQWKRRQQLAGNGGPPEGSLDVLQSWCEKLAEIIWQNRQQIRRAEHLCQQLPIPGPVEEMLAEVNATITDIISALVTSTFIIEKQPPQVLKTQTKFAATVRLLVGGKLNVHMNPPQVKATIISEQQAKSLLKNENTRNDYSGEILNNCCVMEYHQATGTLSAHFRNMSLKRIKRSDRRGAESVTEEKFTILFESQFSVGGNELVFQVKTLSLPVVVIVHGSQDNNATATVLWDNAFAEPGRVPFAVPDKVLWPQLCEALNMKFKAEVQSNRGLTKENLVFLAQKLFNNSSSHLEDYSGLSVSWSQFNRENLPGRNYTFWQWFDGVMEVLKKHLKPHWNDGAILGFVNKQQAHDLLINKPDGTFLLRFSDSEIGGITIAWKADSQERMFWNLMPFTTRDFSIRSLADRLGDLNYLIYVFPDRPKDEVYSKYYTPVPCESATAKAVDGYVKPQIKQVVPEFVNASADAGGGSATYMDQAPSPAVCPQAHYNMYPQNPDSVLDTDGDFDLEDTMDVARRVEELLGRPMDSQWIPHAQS

[2] = test system: STAT5a-GFP; assay: STAT5a Tyr694 phosphorylation in STAT5a-GFP-transfected K562 cells (Western blot); type: cell-based, human; details: 4 h, result in words

**Q.** What does the source list for O=C(COc1ccc(C(=O)Nc2ccc(Oc3ccccc3)cc2)cc1)NCc1ccc(OP(=O)(O)O)c(OP(=O)(O)O)c1 [compound 4, 4-((2-(4-((4-phenoxyphenyl)carbamoyl)phenoxy)acetamido)methyl)-1,2-phenylene bis(dihydrogen phosphate)]?
**A.** Kd [1]: 1650 ± 20 nM; ΔH [1]: -4.3 ± 0.2 kcal/mol; −TΔS [1]: -3.6 ± 0.2 kcal/mol; inhibition of STAT5a phosphorylation [2]: did not show significant activity
